Experimental data taken from US10231980B2, “Cortexolone 17alpha-benzoate for use in the treatment of tumours” (COSMO TECHNOLOGIES LTD., priority 2014, dated 2019).
Read-outs that look alike come from different tables or passages of the source.

Columns and labels:
stimulated PBMC = test: IC50 on stimulated (actively dividing) PBMC; type: cell-based, human
Experimental: (§1) The compound toxicity was determined as follow:
(§2) Therapeutic Index=Safety/Potency=IC50 stimulated PBMC/IC50 cancer cell

resting PBMC = test: IC50 on resting (quiescent) PBMC; type: cell-based, human
Experimental: The IC50 in PBMCs were tested in 2 different activation status: • stimulated—actively dividing cells • resting—quiescent, non-dividing cells
The IC50 in PBMCs were tested in 2 different activation status: • Stimulated—actively dividing cells • Resting—quiescent, non-dividing cells.
IC50 of the compounds was determined on fresh cells isolated from human blood (PBMC).

[1] = system: MiaPaca-2 pancreatic tumor xenograft; test: Human pancreatic tumor xenograft in nude mice; type: in vivo; conditions: for in vivo antitumor activity compared with Cyproterone Acetate: Examples 5 and 6
Experimental: Cortexolone 17α-benzoate and Cyproterone Acetate were separately diluted in DMSO/2-hydroxypropyl β-cyclodextrin (vehicle).
The test was carried out comparing the anti-tumor activity of cortexolone 17α-benzoate at two different dosages (8.0 mg/kg, corresponding approximately at 230 μM, and 40 mg/kg, corresponding approximately at 1150 μM), versus the vehicle (i.e. 0.4% (v/v) tween 80 and 0.5% (w/v) carboxymethylcellulose in normal saline) and versus the comparator Cyproterone Acetate at two different dosages (7.4 mg/kg and 37 mg/kg).
1×10^6 MiaPaca-2 cells suspended in matrigel were sub-cutaneously injected into 6 week old athymic nude mice.
The treatment with the tested compounds, with the vehicle and with the comparative compound, was initiated after the tumor volume has reached 50 mm^3 after transplantation. All compounds were injected 100 μL/mouse of low dose solution (approximately 230 μM) or 100 μL/mouse of high dose solution (approximately 1150 μM) of cortexolone 17α-benzoate, vehicle and Cyproterone Acetate, respectively. Compounds and controls were administered subcutaneously daily for 28 days.
Tumors were measured every 4 days with a digital caliper.
The results are plotted in FIG. 1 as average change in tumor volume relative to the start of treatment. Tumor volume was calculated according to the formula 0.5236(r1)^2(r2) where r1<r2.
Error bars are the SEM for 7 to 10 mice per treatment group. P values were calculated according to the Student's t test.
Cortexolone 17α-valerate-21-propionate and Cyproterone Acetate were separately diluted in DMSO/2-hydroxypropyl β-cyclodextrin (vehicle).
The test was carried out comparing the anti-tumor activity of cortexolone 17α-valerate-21-propionate at two different dosages (approximately 8.6 mg/kg and 43 mg/kg) versus the vehicle (i.e. 0.4% (v/v) tween 80 and 0.5% (w/v) carboxymethylcellulose in normal saline) and versus the comparator Cyproterone Acetate at two different dosages (7.4 mg/kg and 37 mg/kg).
1×10^6 MiaPaca-2 cells suspended in matrigel were subcutaneously injected into 6 week old athymic nude mice.
The treatment with the tested compound, with the vehicle and with the comparative compound was initiated after the tumor has reached a volume of 50 mm^3 after implantation, injecting subcutaneously 100 μL/mouse of low dose solution (approximately 230 μM) or 100 μL/mouse of high dose solution (approximately 1150 μM) of cortexolone 17α-valerate-21-propionate, vehicle and Cyproterone Acetate, respectively. Compounds and controls were administered subcutaneously daily for 28 days. Tumors were measured every 4 days with a digital caliper.
The results are plotted in FIG. 2 as average change in tumor volume relative to the start of treatment. Tumor volume was calculated according to the formula 0.5236(r1)^2(r2) where r1<r2.
Cyproterone acetate (CPA), a well-known anti-androgen, was used as control. Briefly 1×10^6 MiaPaca2 cells suspended in matrigel were subcutaneously (sc) injected into 6 week old male athymic nude mice. Tumors were measured every 4 days with a digital caliper. Tumor volume was calculated according to the formula: 0.5236(r1)2(r2) where r1<r2. Treatment with CB-03-06 and control compounds were initiated after the tumor had reached 50 mm^3. Compounds diluted in DMSO/2-hydroxypropyl b-cyclodextrin (vehicle) were subcutaneously injected daily (100 microL/mouse) at the concentration of 40 mg/Kg daily for 28 consecutive days.

7 cancer cell lines = test: Therapeutic index over a panel of cancer cell lines; type: cell-based; conditions: average over the cancer cell lines of Table VII
Experimental: as §1, §2

MDA-MB-231 = test: In vitro proliferation / cytotoxic assay on breast cancer cells (Examples 14, 25); type: cell-based; conditions: Homo sapiens
Experimental: Data shown in Table I were fitted through sigmoidal dose response curves and analyzed using Prizm statistical.
For the cytotoxic assay, cells were seeded in 96-well flat bottom culture plates in media containing charcoal stripped serum. After 24 hours, test compounds were added to the cells. DMSO was used as the vehicle negative control and RU486 as the positive control. After 72 hour incubation, cells were harvested and lysed to determine cell viability using the Cell Titer Glow assay.

wild type AR (AR-LBD) = target: T1, wild type AR (AR-LBD) (Rattus norvegicus, UniProt P15207); test: Polar Screen fluorescence polarization competition assay; type: binding
T1 construct: purchased Life Technologies
Experimental: Briefly, the AR is added to a fluorescent androgen ligand (Fluormone™ AL Green) to form an AR-LBD complex. Competitors displace the fluorescent Fluormone™ AL Green ligand from the AR-LBD causing the fluorescent ligand to tumble rapidly during its fluorescence lifetime, resulting in a low polarization value. Non competitors will not displace the fluorescent ligand from the complex, so the polarization value remains high. The shift in polarization value in the presence of test compounds is used to determine relative affinity of test compounds for AR-LBD.

MiaPaca2 = test: Cell cycle arrest, propidium iodide staining; type: cell-based; conditions: 24 hours, different concentrations
Experimental: Apoptosis can occur at the G1/S or G2/M transition of the cell cycle. Cells were treated with CB-03-10 for 24 hours then fixed with paraformaldehyde and stained with propidium iodide. […] The lack of G1 block indicates no effect on p53. The S & G2/M blocks may indicate activity on cell cycle check point molecules. For S phase, a possible target is the cyclin dependent kinase 2 (CDK2). Gemzar and cisplatin are example drugs that act in S phase. For G2, a possible target is CDK1.

[2] = system: caspases 8, 9, 3/7 in MiaPaca2 cells; test: Caspase 8, 9 and 3/7 activity; type: cell-based
Experimental: To better analyze the phenomenon, the enzymatic activity of Caspase 8 (initiator caspase for Extrinsic Pathway) and Caspase 9 (initiator caspase for Intrinsic Pathway) and of Caspases 3 and 7 (effector caspases) were measured.
Gemcitabine (a known pancreatic cancer chemotherapeutic agent) and DMSO were used as positive and negative controls, respectively. There were three incubation time points: 8 hours, 24 hours, and 48 hours. After each time point, cells were lysed in multiplex buffer containing the caspase 3/7 substrate combined with either caspase 8 or caspase 9 reagents, which contain stable luciferase in proprietary buffers. The lysates were transferred to white opaque 96-well plates before measuring luminescence on a Tecan Safire instrument. Parallel plates treated identically were used to determine cell viability. All caspase activities were corrected for the number of viable cells.

[3] = system: LNCaP prostate cancer xenograft; test: Human prostate cancer xenograft in nude mice, oral dosing; type: in vivo; conditions: oral 100 mg/Kg daily 28 days
Experimental: 3×10^6 LNCaP cells suspended in matrigel were subcutaneously injected (on the right flank) into 6 week old male athymic nude mice. Tumors were measured as described above. Treatment with CB-03-06 and controls compounds was initiated after the tumor had reached 50 mm^3. […] Oral dosing was daily (100 mg/Kg in 200 microL/mouse) for 28 consecutive days. Results were plotted as average change in tumor volume relative to the start of treatment.

LNCaP = test: Cell viability of the cells of the PSA assay; type: cell-based; conditions: Homo sapiens, 48 h, read-out: cell viability IC50
Experimental: Prostate-specific antigen, or PSA, is a protein produced by cells of the prostate gland. The PSA test measures the level of PSA in a person's blood. The blood level of PSA is often elevated in men with prostate cancer and it used as surrogate marker to test prostate cancer progression in human population. […] LNCaP cells were seeded in 96-well flat bottom culture plates in media containing charcoal stripped serum with or without 10 nM DHT. […] After 48 hours incubation with test compounds, supernatants were harvested and tested with an Elisa assay for PSA and the same cells were lysed for cell viability assessment.

T1 sequence (P15207 651-882 limits assumed): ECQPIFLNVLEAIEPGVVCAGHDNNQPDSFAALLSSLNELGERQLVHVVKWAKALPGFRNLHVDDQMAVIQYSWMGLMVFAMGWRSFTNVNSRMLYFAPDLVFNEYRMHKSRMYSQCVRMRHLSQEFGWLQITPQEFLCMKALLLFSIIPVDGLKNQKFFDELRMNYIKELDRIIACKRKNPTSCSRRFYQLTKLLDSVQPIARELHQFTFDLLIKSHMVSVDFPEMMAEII

CCCCC(=O)O[C@]1(C(=O)COC(=O)CC)CC[C@H]2[C@@H]3CCC4=CC(=O)CC[C@]4(C)[C@H]3CC[C@@]21C [CB-03-10, cortexolone 17α-valerate-21-propionate]
IC50 (stimulated PBMC; Example 7, Experiment 1, read-out: IC50 on Stimulated PBMC): 106 µM
IC50 (stimulated PBMC; Example 7, Experiment 2, read-out: IC50 on Stimulated PBMC): 94 µM
IC50 (stimulated PBMC; PBMC STIMULATED, Table IV, read-out: In vitro proliferation IC50): 94 µM
IC50 (resting PBMC; Example 7, Experiment 1, read-out: IC50 on Resting PBMC): 114 µM
IC50 (resting PBMC; Example 7, Experiment 2, read-out: IC50 on Resting PBMC): 120 µM
pancreatic tumor size relative to the initial tumor size ([1]; Example 6, MiaPaca-2 xenograft, nude mice, SC daily 28 days, for the time of treatment): less than 5 fold
in vivo antitumor activity compared with Cyproterone Acetate ([1]; MiaPaca-2 xenograft): antitumor activity higher than Cyproterone Acetate
Therapeutic Index = IC50 stimulated PBMC/IC50 cancer cell, AVERAGE (7 cancer cell lines): 4

C[C@]12CCC(=O)C=C1CC[C@@H]1[C@@H]2CC[C@@]2(C)[C@H]1CC[C@]2(OC(=O)c1ccccc1)C(=O)CO [CB-03-06, cortexolone 17α-benzoate]
IC50 (stimulated PBMC; Homo sapiens, PBMC, read-out: IC50 on Stimulated PBMC, Example 7, Experiment 1): 113 µM
IC50 (stimulated PBMC; Homo sapiens, PBMC, read-out: IC50 on Stimulated PBMC, Example 7, Experiment 2): 97 µM
IC50 (stimulated PBMC; Homo sapiens, PBMC, read-out: In vitro proliferation IC50, PBMC STIMULATED, Table IV): 97 µM
IC50 (stimulated PBMC; Homo sapiens, PBMC, read-out: in vitro proliferation IC50, PBMC STIMULATED, Table III): 97 µM
IC50 (resting PBMC; Homo sapiens, PBMC, read-out: IC50 on Resting PBMC, Example 7, Experiment 1): 100 µM
IC50 (resting PBMC; Homo sapiens, PBMC, read-out: IC50 on Resting PBMC, Example 7, Experiment 2): 85 µM
IC50 (resting PBMC; Homo sapiens, PBMC, read-out: in vitro proliferation IC50, PBMC RESTING, Table III): 85 µM
IC50 (MDA-MB-231; MDA-MB-231, 72 h): 46 µM
IC50 (MDA-MB-231; MDA-MB-231, read-out: in vitro proliferation IC50): 46 µM
IC50 (wild type AR (AR-LBD)): 2.6 µM
cell cycle arrest (MiaPaca2): induces an S phase block at lower concentrations then a G2/M block at higher concentration
caspase 8 and 9 activity, increase compared to the control ([2]; 20 or 50 μM, evident after 8 hours): ≤ 7 fold
Caspase 3/7 induction ([2]; 48 hour incubation): induced by CB-03-06 at high level
pancreatic tumor size relative to the size when treatment was initiated ([1]; Example 5, MiaPaca-2 xenograft, nude mice, SC daily 28 days, high dose of cortexolone 17α-benzoate (40 mg/kg)): less than 5 fold
pancreatic tumor size relative to the initial size ([1]; Example 22, MiaPaca2 xenograft, male nude mice, 40 mg/Kg SC daily 28 days, treatment period): less than 5 fold
Median survival ([1]; Example 22, MiaPaca2 xenograft, 40 mg/Kg SC daily 28 days): 70 days
in vivo antitumor activity compared with Cyproterone Acetate ([1]; MiaPaca-2 xenograft): antitumor activity higher than Cyproterone Acetate
anti-tumor activity, change in tumor volume [3]: strong anti-tumor activity against prostate cancer
IC50 (LNCaP): 12 µM
Therapeutic Index = IC50 stimulated PBMC/IC50 cancer cell, AVERAGE (7 cancer cell lines): 5
